Experimental data: ChEMBL document CHEMBL1201862, “PubChem BioAssay data set” (2004)
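Step 1: Grow cells in 96-well plates. Step 2: Expose to compound for 48 hours at 5 concentrations. Step 3: Interpolate endpoints linearly; if unreached, use highest concentration. GI50 = concentration required for 50% inhibition of growth.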 Active and inactive are the calls of the source. Cut-off read from the data, not from the text of the source: active = GI50 up to about 1.1 µM and inactive = higher. Where a SMILES comes first, the peptide text is derived from it. The star is where a group is joined. Boc = CC(C)(C)OC(=O)*

Experiments:
Assay in all cases: inhibition of tumour cell growth, NCI panel, 48 h
Hs-578T = tested on: Hs-578T
EKVX = tested on: EKVX
OVCAR-4 = tested on: OVCAR-4
BT-549 = tested on: BT-549
MOLT-4 = tested on: MOLT-4
K562 = tested on: K562
HOP-62 = tested on: HOP-62
CAKI-1 = tested on: CAKI-1
SF-295 = tested on: SF-295
SNB-19 = tested on: SNB-19
SNB-75 = tested on: SNB-75
HCT-116 = tested on: HCT-116
NCI-H226 = tested on: NCI-H226
SK-MEL-2 = tested on: SK-MEL-2
HCT-15 = tested on: HCT-15
HOP-92 = tested on: HOP-92

Row | SMILES | GI50 (Hs-578T) | GI50 (EKVX) | GI50 (OVCAR-4) | GI50 (BT-549) | GI50 (MOLT-4) | GI50 (K562) | GI50 (HOP-62) | GI50 (CAKI-1) | GI50 (SF-295) | GI50 (SNB-19) | GI50 (SNB-75) | GI50 (HCT-116) | GI50 (NCI-H226) | GI50 (SK-MEL-2) | GI50 (HCT-15) [µM] | GI50 (HOP-92)
1 | O=C(O)CSc1n[nH]c(=O)[nH]c1=O | > 100 µM (inactive) | > 100 µM (inactive) | > 100 µM (inactive) | > 100 µM (inactive) | > 100 µM (inactive) | > 100 µM (inactive) | > 100 µM (inactive) | > 100 µM (inactive) | > 100 µM (inactive) | > 100 µM (inactive) | > 100 µM (inactive) | > 100 µM (inactive) | > 100 µM (inactive) | > 100 µM (inactive) | > 100 | 
2 | c1ccc(C2(c3cc4ccccc4[nH]3)OCCO2)cc1 |  | 23.9 µM (inactive) | 32.2 µM (inactive) | 75.7 µM (inactive) | 11.6 µM (inactive) | 22.2 µM (inactive) |  | 86.1 µM (inactive) | 53.1 µM (inactive) | > 100 µM (inactive) | > 100 µM (inactive) | 37.8 µM (inactive) | 36.6 µM (inactive) | 42.6 µM (inactive) | 41.6 | 17.3 µM (inactive)
3 | CCOC(=O)c1c(NC(=O)c2ccccc2)c(C#N)c2n1CCCCC2 | > 100 µM (inactive) | > 100 µM (inactive) | > 100 µM (inactive) |  | > 100 µM (inactive) | > 100 µM (inactive) | > 100 µM (inactive) | > 100 µM (inactive) | > 100 µM (inactive) | > 100 µM (inactive) | > 100 µM (inactive) | > 100 µM (inactive) | > 100 µM (inactive) |  | > 100 | > 100 µM (inactive)
4 | COc1cc(OC)c2c(c1OC)OCC(Cc1ccc(O)cc1)C2=O (stereo unspecified) | > 25 µM (inactive) |  | > 25 µM (inactive) |  | > 25 µM (inactive) | > 25 µM (inactive) | > 25 µM (inactive) | > 25 µM (inactive) | > 25 µM (inactive) | > 25 µM (inactive) | > 25 µM (inactive) | > 25 µM (inactive) | > 25 µM (inactive) | > 25 µM (inactive) | > 25 | 
5 | C[N+](C)(C)[BH-](Br)C(O)O (stereo unspecified) | > 100 µM (inactive) | > 100 µM (inactive) | > 100 µM (inactive) | > 100 µM (inactive) | > 100 µM (inactive) | > 100 µM (inactive) | > 100 µM (inactive) | > 100 µM (inactive) | > 100 µM (inactive) | > 100 µM (inactive) | 40.6 µM (inactive) | > 100 µM (inactive) |  | > 100 µM (inactive) | > 100 | > 100 µM (inactive)
6 | O=C1OC(OCC#CCOC2OC(=O)C(Cl)=C2Cl)C(Cl)=C1Cl (stereo unspecified) | 13.2 µM (inactive) | 20.1 µM (inactive) |  |  | 2.43 µM (inactive) |  | 13.6 µM (inactive) |  | 20.7 µM (inactive) | 16.1 µM (inactive) | 12.4 µM (inactive) | 10.2 µM (inactive) |  | 15.8 µM (inactive) | 5.85 | 
7 | CN(C)Cc1cc(C(=O)/C=C/c2ccc(/C=C/C(=O)c3cc(CN(C)C)c(O)c(CN(C)C)c3)cc2)cc(CN(C)C)c1O | 58.2 µM (inactive) | 39.2 µM (inactive) | 50.6 µM (inactive) | 18.6 µM (inactive) | 12.7 µM (inactive) | 25.3 µM (inactive) | 26.8 µM (inactive) | 39 µM (inactive) | 29.2 µM (inactive) | > 100 µM (inactive) | > 100 µM (inactive) | 15.2 µM (inactive) |  | 20.2 µM (inactive) | 29.6 | 24.2 µM (inactive)
8 | Cc1nn(C(=O)Cc2ccccc2)c2c1C(c1ccccc1[N+](=O)[O-])SC(=N)N2 (stereo unspecified) | > 100 µM (inactive) | > 100 µM (inactive) |  | > 100 µM (inactive) | > 100 µM (inactive) | > 100 µM (inactive) | > 100 µM (inactive) | > 100 µM (inactive) | > 100 µM (inactive) | > 100 µM (inactive) | 83.4 µM (inactive) | > 100 µM (inactive) | > 100 µM (inactive) |  | > 100 | 
9 | [O-]c1c2cc(-[n+]3c(-c4ccccc4)cc(-c4ccccc4)cc3-c3ccccc3)cc1CO[C@@H](c1ccccc1)[C@H](c1ccccc1)OCc1cccc(n1)CO[C@@H](c1ccccc1)[C@H](c1ccccc1)OC2 | 0.676 µM (active) | 0.0838 µM (active) | 0.09 µM (active) | 0.057 µM (active) | 0.0526 µM (active) | 0.0293 µM (active) | 0.169 µM (active) | 0.367 µM (active) | 0.102 µM (active) | 0.0514 µM (active) | 0.0682 µM (active) | 0.0286 µM (active) |  | 0.0569 µM (active) | 0.74 | 0.0322 µM (active)
10 | OCC1OC(n2cnc3c(SCc4ccccc4)ncnc32)C(O)C1O (stereo unspecified) |  | > 68.5 µM (inactive) | 11.8 µM (inactive) | 16.6 µM (inactive) | 0.773 µM (active) | 3.15 µM (inactive) | > 100 µM (inactive) | 6.53 µM (inactive) | > 74.1 µM (inactive) | > 100 µM (inactive) | > 100 µM (inactive) | 5.45 µM (inactive) | > 67.3 µM (inactive) | 96.8 µM (inactive) | 3.25 | 4.75 µM (inactive)
11 | COc1ccc(Nc2nc3cc(C(F)(F)F)ccc3nc2C(=O)O)cc1 | 21.1 µM (inactive) | 22.9 µM (inactive) | 27.3 µM (inactive) | 14.4 µM (inactive) | 7.87 µM (inactive) | 15.2 µM (inactive) | 14.9 µM (inactive) | 33.2 µM (inactive) | 13 µM (inactive) | 16 µM (inactive) | 17.6 µM (inactive) | 15.5 µM (inactive) | 15.6 µM (inactive) | 14.5 µM (inactive) | 16.6 | 
12 | Cc1ccc(CC(=O)Nc2ccc(NC(=O)/C=C/NC(=O)/C=C/c3ccc(-c4ccccc4)cc3)cc2C(=O)c2ccccc2)cc1 | 1.73 µM (inactive) | 1.32 µM (inactive) | 1.48 µM (inactive) | 1.46 µM (inactive) | 4.17 µM (inactive) | 11.1 µM (inactive) | 2.11 µM (inactive) | 3.29 µM (inactive) | 1.36 µM (inactive) | 3.05 µM (inactive) | 1.93 µM (inactive) | 1.12 µM (active) | 2.42 µM (inactive) | 1.89 µM (inactive) | 2.7 | 
13 | C=CCOCn1ccc(N)nc1=O | > 100 µM (inactive) | > 100 µM (inactive) |  | > 100 µM (inactive) | > 100 µM (inactive) | > 100 µM (inactive) | > 100 µM (inactive) | > 100 µM (inactive) | > 100 µM (inactive) | > 100 µM (inactive) | > 100 µM (inactive) | > 100 µM (inactive) | > 100 µM (inactive) |  | > 100 | 
14 | O=C1CCc2cc3c(cc21)C(C(=O)O)CC3 (stereo unspecified) | > 100 µM (inactive) | > 100 µM (inactive) | > 100 µM (inactive) | > 100 µM (inactive) | > 100 µM (inactive) | > 100 µM (inactive) | > 100 µM (inactive) | > 100 µM (inactive) | > 100 µM (inactive) | > 100 µM (inactive) | 87.5 µM (inactive) | > 100 µM (inactive) | > 100 µM (inactive) | > 100 µM (inactive) | > 100 | 
15 | Cc1ccc(-c2nc(Cc3n[nH]c(-c4ccc(C)cc4)n3)n[nH]2)cc1 |  | > 100 µM (inactive) | 3.75 µM (inactive) | > 100 µM (inactive) | > 100 µM (inactive) | > 100 µM (inactive) | 29 µM (inactive) |  | > 100 µM (inactive) | 44.2 µM (inactive) | 3.2 µM (inactive) | 36.1 µM (inactive) |  | > 100 µM (inactive) | > 100 | > 100 µM (inactive)
16 | COC(=O)C(Cc1c[nH]c2ccccc12)NC(=O)C(Cc1c[nH]c2ccccc12)NC(=O)C(Cc1c[nH]c2ccccc12)NC(=O)C(Cc1c[nH]c2ccccc12)NC(=O)C(Cc1c[nH]c2ccccc12)NC(=O)C(Cc1c[nH]c2ccccc12)NC(=O)C(Cc1c[nH]c2ccccc12)NC(=O)C(Cc1c[nH]c2ccccc12)NC(=O)OC(C)(C)C (stereo unspecified) (Boc-WWWWWWWW-OMe; configuration not given here) |  |  | > 100 µM (inactive) | > 100 µM (inactive) | 44.5 µM (inactive) | 31.8 µM (inactive) | > 100 µM (inactive) | > 100 µM (inactive) |  | 46.2 µM (inactive) | > 100 µM (inactive) | 15.3 µM (inactive) | 49.3 µM (inactive) | 33.6 µM (inactive) | > 100 | 
17 | O=C1c2ccccc2C(=O)N1CCc1nc(-c2ccccc2)c[nH]1 | > 100 µM (inactive) | > 100 µM (inactive) | > 100 µM (inactive) | > 100 µM (inactive) | > 100 µM (inactive) | > 100 µM (inactive) | > 100 µM (inactive) | > 100 µM (inactive) | > 100 µM (inactive) | > 100 µM (inactive) | > 100 µM (inactive) | > 100 µM (inactive) | > 100 µM (inactive) | > 100 µM (inactive) | > 100 | 
18 | COc1ccc(/C=C2\OC(=O)C(Cl)=C2c2ccc(OC)cc2)cc1 | > 100 µM (inactive) | > 100 µM (inactive) | 86.9 µM (inactive) | 99.5 µM (inactive) | > 100 µM (inactive) | > 100 µM (inactive) | 28 µM (inactive) | > 100 µM (inactive) | > 100 µM (inactive) | > 100 µM (inactive) | > 100 µM (inactive) |  |  | > 100 µM (inactive) | > 100 | 14 µM (inactive)
19 | CC(=O)N(C)CCc1c[nH]c2ccccc12 | > 100 µM (inactive) | > 100 µM (inactive) | > 100 µM (inactive) | > 100 µM (inactive) | > 100 µM (inactive) | > 100 µM (inactive) | > 100 µM (inactive) | > 100 µM (inactive) | > 100 µM (inactive) | > 100 µM (inactive) | > 100 µM (inactive) | > 100 µM (inactive) | > 100 µM (inactive) | > 100 µM (inactive) | > 100 | 
